Experimental data published in PMC7177633, “Effective Cellular Transport of Ortho-Halogenated Sulfonamide Derivatives of Metformin Is Related to Improved Antiproliferative Activity and Apoptosis Induction in MCF-7 Cells” (International Journal of Molecular Sciences, 2020).
Where two headings read alike, the source gives them in different places.

Key:
[1] = tested on: MCF-7 cells; experiment: Intracellular GSH and GSSG, MCF-7; format: cell-based, human; settings: MCF-7, 24 h, reference agents: Ascorbic acid 200 µM, AAPH 10 mM
Procedure: (§1) The quantitative determination of glutathione and glutathione disulfide was performed using the enzymatic recycling method according to the protocol of Rahman. The cells were seeded at a density of 2 × 10^5 per well in a 6-well plate and cultured for 48 h. Then, the cells were treated with tested compounds 1, 4 and 7 at their respective ¼ and ½ IC50 values for MCF-7 and MDA-MB-231 cells. Additionally, controls with pure medium, AAPH (2,2′-Azobis(2-methylpropionamidine) dihydro-chloride, Sigma Aldrich, St. Louis, MO, USA) and ascorbic acid (Polish Chemical Reagents, Poland) were performed. The cells were incubated with compounds for another 24 h, then washed twice with 2 mL of cold, Ca^2+-/Mg^2+-free PBS (Biomed Lublin, Lublin, Poland). The cells were harvested using 1-mL accutase (Sigma Aldrich, St. Louis, MO, USA), and the wells were washed with 1 mL of cold growth medium. The cells were transferred to prechilled 2.0-mL Eppendorf tubes and centrifuged at 1000× g for 5 min at 4 °C. The supernatant was discarded, the pellets were resuspended in 1 mL of cold PBS, the number of cells was determined in each sample and the cellular suspension was centrifuged again. PBS was discarded, and the pellets were stored covered with 30-µL PBS at –70 °C. The following day, the cells were suspended in 0.5 mL of ice-cold extraction buffer (0.1% Triton-X (Polish Chemical Reagents, Gliwice, Poland) and 0.6% sulfosalicylic acid (Sigma Aldrich) in a potassium phosphate buffer with EDTA (Sigma Aldrich)) and sonicated in icy water for 3 min with vortexing every 30 s. The cells were frozen once again at −80 °C, defrosted on ice and frozen once again. Following the second freeze–thaw cycle, the cells were centrifuged at 1500× g for 5 min at 4 °C, and then, immediately, the supernatant was transferred to prechilled Eppendorf tubes. The samples were divided into two parts: one was used to measure GSH, and the other one was derivatized by an addition of 4 µL of 2-vinylpyridine (diluted 1:10 with phosphate buffer) (Sigma Aldrich, St. Louis, MO, USA) to determine the GSSG content.
(§2) GSH measurements included an addition of 20 µL of the tested sample, blank or GSH standard, 120 µL of the mixture of an equal volume of DTNB solution (2 mg dissolved in 3 mL of phosphate buffer, Sigma Aldrich) and glutathione reductase (10 U in 3 mL of phosphate buffer, Sigma Aldrich, St. Louis, MO, USA) and 30 s of incubation to allow the conversion of GSSG to GSH. The final step included the addition of 60 µL of β-NADPH (2 mg dissolved in 3 mL of phosphate buffer, Sigma Aldrich). The absorbance was read immediately at 415 nm in a microplate reader (Bio-Rad), and the measurements were taken every 30 s for 2 min (6 readings in total). The amount of GSH was calculated on the basis of the calibration curve prepared using GSH (Sigma Aldrich, St. Louis, MO, USA) at concentrations ranging from 0.040 to 2.6 nmol/mL.
(§3) The quantification of GSSG in the test samples was performed according to the same procedure as GSH. The samples treated with 2-VP were incubated for one hour at room temperature, and then, 20 µL of the tested sample was analyzed using the same reagents which were applied in the GSH measurements. The amount of GSSG was calculated on the basis of the calibration curve, prepared using GSSG (Sigma Aldrich) at concentrations of 0.040–2.6 nmol/mL. The results are presented as mean ± SD, n = 6–8 and expressed as nmol per […].

[2] = tested on: MDA-MB-231 cells; experiment: Intracellular GSH and GSSG, MDA-MB-231; format: cell-based, human; settings: MDA-MB-231, 24 h, reference agents: Ascorbic acid 200 µM, AAPH 10 mM
Procedure: as §1, §2, §3

[3] = tested on: MDA-MB-231 cells; experiment: Cell viability WST-1 assay, MDA-MB-231; format: cell-based; settings: Homo sapiens, MDA-MB-231; WST-1, 24 h, mean ± SD (n = 6–8); read-out: IC50 inhibition of MDA-MB-231 cells' viability
Procedure: (§4) The viability of MCF-7 and MDA-MB-231 cells was determined using a colorimetric WST-1 assay (Takara, Takara Bio Europe, Saint-Germain-en-Laye, France). Both cell lines were seeded at a density of 1 × 10^4 per well on 96-well plates and were cultured for 24 h to obtain 70% confluence. The following day, the cells were treated with various concentrations of compounds 1–9 diluted in the cell culture medium ([…]). The cells were incubated with tested compounds or pure medium (control) for 24 h (37 °C, 5% CO2). Afterwards, the cells were washed with 100 μL of culture medium, and then, the reagent dissolved in the medium was added (100 μL). The plates were incubated at the standard condition for 1.5 h, and the absorbance was read at 450 nm using a microplate reader (iMARK, Bio-Rad, Bio-Rad Laboratories Inc., Hercules, CA, USA). […] The results of samples treated with the test compounds were expressed as a percentage of the control samples. The data were presented as mean ± standard deviation (SD), n = 8. IC50 values (the concentration of the tested compound that inhibited cell growth by 50%) were calculated using a concentration-response curve (GraphPad Prism, Software, San Diego, CA, USA).
(§5) The concentrations contributing to the 50% of cell growth inhibition (IC50) were calculated using nonlinear regression analysis (fitting the curve to log (concentration) vs. cellular response).

[4] = tested on: MDA-MB-231 cells; experiment: Uptake in the presence of OCT and MATE inhibitors, MDA-MB-231 cells; format: in vitro ADME, human
Procedure: (§6) The uptake of sulfonamide derivatives of metformin (1–9) in MCF-7 and MDA-MB-231 cells was studied also in the presence of disopyramide, cimetidine (OCT1 and 3 inhibitors), lopinavir (OCT and PMAT inhibitor) and methenamine (MATE and OCT2 inhibitors). The cells were incubated (37 °C, 10 min) with compounds 1–9 at concentrations of 400 and 800 μmol/L and inhibitors (disopyramide, cimetidine, lopinavir or methenamine) in 250 μL of prewarmed HBSS buffer. The protocol of determination of the compound concentration was as described above.

[5] = tested on: OCTs; experiment: Inhibition of [14C]choline uptake in MDA-MB-231 cells (competitive inhibition assay); format: cell-based, human; settings: mean ± SD (n = 3)
Procedure: (§7) The following day, after removal of the culture medium, the cells were carefully washed with prewarmed HBSS (Hanks’ balanced salt solution) containing 125 mM NaCl, 4.8 mM KCl, 1.2 mM MgSO4, 1.2 mM KH2PO4, 1.3 mM CaCl2, 5.6 mM glucose and 25 mM HEPES (pH 7.4). […] Then, the cells were washed three times with ice-cold HBSS (500 μL) and were lysed with 250 μL of 0.1-M NaOH in the ice bath, and the lysate was mixed with 1.0 mL of an emulsifier safe cocktail (PerkinElmer, Waltham, MA, USA). The radioactivity was measured by liquid scintillation counting (MicroBeta^2 counter, PerkinElmer, Waltham, MA, USA). The studies were carried out with the use of at least three replicates from the same cell passage.

[6] = tested on: OCTs; experiment: Inhibition of [14C]choline uptake in MCF-7 cells (competitive inhibition assay); format: cell-based, human; settings: mean ± SD (n = 3)
Procedure: as §7

[7] = tested on: MCF-7 cells; experiment: Cellular uptake of metformin sulfonamides in MCF-7 cells (HPLC); format: in vitro ADME, human
Procedure: (§8) The uptake of metformin sulfonamides (1–9) in MCF-7 and MDA-MB-231 cells was studied by incubation of the cells with 10−3000 μmol/L of compounds in 250 μL of prewarmed HBSS buffer at 37 °C for 10 min. Subsequently, the cells were then washed three times with 500 μL of ice-cold HBSS and lysed with 250 μL of 0.1-M NaOH. The samples were collected, centrifuged (5 min, 1400 rpm) and the supernatants were analyzed by the HPLC method. The concentration of each compound in the cells was calculated on the basis of the standard curve prepared by spiking known amounts of every compound on the cell layers in 250 μL of 0.1-M NaOH.
(§9) The concentration of the studied sulfonamides (1–9) was assessed using the HPLC system, consisting of an Agilent 1100 binary pump (Agilent Technologies Inc., Wilmington, DE, USA), an 1100 micro-vacuum degasser, an HP 1050 autosampler and an HP 1050 variable wavelength detector (operated at 235 nm). The chromatographic separations of compounds 1–9 were conducted on an Agilent Zorbax SB-C18 analytical column (4.6 mm × 150 mm, 5 μm) using an isocratic elution of water containing 0.1% formic acid (pH ca. 3.0) and acetonitrile containing 0.1% formic acid with a changing ratio, depending on the compound. The analyses were conducted at room temperature (RT). The detailed procedure of chromatographic analysis was described in our previous paper. The studies were conducted in quadruplicates.
(§10) The protein concentrations in representative wells of each plate were assessed using a Bio-Rad protein assay according to the Bradford method (EnVision, PerkinElmer, Inc., Waltham, MA, USA).

[8] = tested on: MCF-7 cells; experiment: Uptake in the presence of OCT and MATE inhibitors, MCF-7 cells; format: in vitro ADME, human
Procedure: as §6

[9] = tested on: MDA-MB-231 cells; experiment: Cellular uptake of metformin sulfonamides in MDA-MB-231 cells (HPLC); format: in vitro ADME, human
Procedure: as §8, §9, §10

[10] = tested on: MCF-7 cells; experiment: Cell viability WST-1 assay, MCF-7; format: cell-based; settings: Homo sapiens, MCF7; WST-1, 24 h, mean ± SD (n = 6–8); read-out: IC50 inhibition of MCF-7 cells' viability
Procedure: as §4, §5

[11] = compound and inhibitor 400 and 800 µmol/L, 10 min, 37 °C
[12] = summary from uptake with inhibitors
[13] = Eadie-Hofstee analysis, transporter I
[14] = Eadie-Hofstee analysis, transporter II

CC(C)(N=NC(C)(C)C(=N)N)C(=N)N.Cl.Cl [AAPH, 2,2′-Azobis(2-methylpropionamidine) dihydrochloride, reference compound]
GSH [1]: 117.6 ± 7.8 nmol/1 mln Cells | GSH:GSSG Ratio [1]: 8.9 | GSSG [1]: 12.8 ± 0.5 nmol/1 mln Cells | GSH [2]: 102.7 ± 3.2 nmol/1 mln Cells | GSH:GSSG Ratio [2]: 6.9 | GSSG [2]: 14.3 ± 1.9 nmol/1 mln Cells

O=C1O[C@H]([C@@H](O)CO)C(O)=C1O [Ascorbic acid, reference compound]
GSH [1]: 153.1 ± 5.4 nmol/1 mln Cells | GSH:GSSG Ratio [1]: 25.3 | GSSG [1]: 6.0 ± 0.4 nmol/1 mln Cells | GSH [2]: 249.6 ± 20.8 nmol/1 mln Cells | GSH:GSSG Ratio [2]: 13.9 | GSSG [2]: 17.9 ± 1.5 nmol/1 mln Cells

CN(C)C(=N)N=C(N)NS(=O)(=O)c1cccc(Cl)c1 [Compound 2]
IC50 [3]: 844 ± 135 µM | uptake in the presence of cimetidine, MDA-MB-231 [4, 11]: no significant differences | uptake in the presence of disopyramide, MDA-MB-231 [4, 11]: no significant differences | uptake in the presence of lopinavir, MDA-MB-231 [4, 11]: no significant differences | uptake in the presence of methenamine, MDA-MB-231 [4, 11]: no significant differences | interactions with OCT, PMAT and MATE1 transporters, MDA-MB-231 [4, 12]: OCT1, OCT3 | IC50 [5]: 4449 ± 18.1 µM | IC50 [6]: 2923 ± 9.1 µM | uptake into MCF-7 cells ([7]; 800 μmol/L, 10 min incubation, 37 °C): 2.669 ± 0.040 nmol/min/mg protein | Vmax, transporter I, MCF-7 [7, 13]: 19.2 ± 2.31 nmol/min/mg | Km ([7]; Eadie-Hofstee analysis, transporter I, read-out: Km, transporter I, MCF-7): 4.01 ± 0.696 mM | Vmax, transporter II, MCF-7 [7, 14]: 24.91 ± 5.44 nmol/min/mg | Km ([7]; Eadie-Hofstee analysis, transporter II, read-out: Km, transporter II, MCF-7): 7.47 ± 1.82 mM | Vmax MCF-7 (Michaelis Menten curves) ([7]; Michaelis-Menten curve): 34.4 ± 17.2 nmol/min/mg | Km ([7]; Michaelis-Menten curve, read-out: Km MCF-7 (Michaelis Menten curves)): 9.05 ± 1.52 mM | uptake in MCF-7 cells relative to metformin ([7]; fold higher than parent drug metformin, 800 μmol/L): approximately 25 fold | uptake in the presence of cimetidine, MCF-7 [8, 11]: inhibited | uptake in the presence of disopyramide, MCF-7 [8, 11]: profoundly elevated | uptake in the presence of lopinavir, MCF-7 [8, 11]: profoundly elevated | interactions with OCT, PMAT and MATE1 transporters, MCF-7 [8, 12]: OCT1, OCT3, PMAT | Vmax, transporter I, MDA-MB-231 [9, 13]: 0.077 ± 0.008 nmol/min/mg | Km ([9]; Eadie-Hofstee analysis, transporter I, read-out: Km, transporter I, MDA-MB-231): 2.4 ± 0.353 mM | Vmax, transporter II, MDA-MB-231 [9, 14]: 0.111 ± 0.016 nmol/min/mg | Km ([9]; Eadie-Hofstee analysis, transporter II, read-out: Km, transporter II, MDA-MB-231): 5.47 ± 0.73 mM | Vmax MDA-231 cells (Michaelis Menten curves) ([9]; Michaelis-Menten curve): 0.157 ± 0.129 nmol/min/mg | Km ([9]; Michaelis-Menten curve, read-out: Km MDA-231 cells (Michaelis Menten curves)): 6.75 ± 1.73 mM | IC50 [10]: 533 ± 87.4 µM
